Values of other authors in US12551454B2, “Isoproterenol compositions and methods” (Endo Operations Limited, priority 2020, dated 2026).

Settings: more potent than its (S)-enantiomer

SMILES: CC(C)NC[C@H](O)c1ccc(O)c(O)c1 (single isomer, unassigned) [(R)-enantiomer of Isoproterenol]
- potency relative to (S)-enantiomer: ~90 times
